# Laboratory results from US8530663B2, “1-(2-phenoxymethylheteroaryl)piperidine and piperazine compounds” (Theravance, Inc., priority 2010, dated 2013).
# Marks after values point to notes of the source that are not given here.
# Tests used:
# hSERT [1] = target: T1, hSERT (Homo sapiens, UniProt P31645); assay: hSERT membrane radioligand binding assay (3H-citalopram); settings: hSERT membranes, 1.0 nM 3H-citalopram; for Ki: read-out: SERT pKi (converted)
# T1 construct: expressed in transfected cells; host or cells: HEK-293
# T1 sequence (P31645 whole entry): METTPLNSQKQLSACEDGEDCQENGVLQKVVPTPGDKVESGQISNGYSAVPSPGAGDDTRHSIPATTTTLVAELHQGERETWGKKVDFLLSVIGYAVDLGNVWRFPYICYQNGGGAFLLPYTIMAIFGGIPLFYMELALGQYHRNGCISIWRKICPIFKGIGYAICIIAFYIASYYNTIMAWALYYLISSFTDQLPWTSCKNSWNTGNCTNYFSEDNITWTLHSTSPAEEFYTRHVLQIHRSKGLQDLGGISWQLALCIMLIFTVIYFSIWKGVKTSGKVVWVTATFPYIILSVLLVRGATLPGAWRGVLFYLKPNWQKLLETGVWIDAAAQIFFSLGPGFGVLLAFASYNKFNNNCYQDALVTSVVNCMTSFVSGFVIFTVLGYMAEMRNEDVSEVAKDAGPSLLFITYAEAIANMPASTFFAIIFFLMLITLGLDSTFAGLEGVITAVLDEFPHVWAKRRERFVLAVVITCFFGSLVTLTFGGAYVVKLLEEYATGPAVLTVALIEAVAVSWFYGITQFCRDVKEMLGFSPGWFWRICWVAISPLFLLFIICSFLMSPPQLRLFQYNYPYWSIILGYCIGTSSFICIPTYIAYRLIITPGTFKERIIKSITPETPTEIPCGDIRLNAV
# Procedure: (§1) Membrane radioligand binding assays were used to measure inhibition of labeled ligand (^3H-citalopram or ^3H-nisoxetine or ^3H-WIN35428) binding to membranes prepared from cells expressing the respective human recombinant transporter (hSERT or hNET or hDAT) in order to determine the pKi values of test compounds at the transporters.
# (§2) Recombinant human embryonic kidney (HEK-293) derived cell lines stably transfected with hSERT or hNET, respectively, were grown in DMEM medium supplemented with 10% dialyzed FBS (for hSERT) or FBS (for hNET), 100 μg/ml penicillin, 100 μg/ml streptomycin, 2 mM L-glutamine and 250 μg/ml of the aminoglycoside antibiotic G418, in a 5% CO2 humidified incubator at 37° C. When cultures reached 80% confluence, the cells were washed thoroughly in PBS (without Ca^2+ and Mg^2+) and lifted with 5 mM EDTA in PBS. Cells were pelleted by centrifugation, resuspended in lysis buffer (10 mM Tris-HCl, pH7.5 containing 1 mM EDTA), homogenized, pelleted by centrifugation, then resuspended in 50 mM Tris-HCl, pH 7.5 and 10% sucrose at 4° C. Protein concentration of the membrane suspension was determined using a Bio-Rad Bradford Protein Assay kit. Membranes were snap frozen and stored at −80° C. Chinese hamster ovary membranes expressing hDAT (CHO-DAT) were purchased from PerkinElmer and stored at −80° C.
# (§3) Binding assays were performed in a 96-well assay plate in a total volume of 200 μL assay buffer (50 mM Tris-HCl, 120 mM NaCl, 5 mM KCl, pH 7.4) with 0.5, 1, and 3 μg membrane protein, for SERT, NET and DAT, respectively.
# (§4) Stock solutions (10 mM in DMSO) of test compound were prepared and serial dilutions made using Dilution Buffer (50 mM Tris-HCl, 120 mM NaCl, 5 mM KCl, pH 7.4, 0.1% BSA, 400 μM ascorbic acid).
# (§5) Following a 60 minute incubation at 22° C. (or a period sufficient to reach equilibrium), the membranes were harvested by rapid filtration over a 96-well UniFilter GF/B plate, pretreated with 0.3% polyethyleneimine, and washed 6 times with 300 μl wash buffer (50 mM Tris-HCl, 0.9% NaCl, pH 7.5 at 4° C.). Plates were dried overnight at room temperature, ˜45 μl of MicroScint™-20 (Perkin Elmer) added and bound radioactivity quantitated via liquid scintillation spectroscopy. Inhibition curves and saturation isotherms were analyzed using GraphPad Prism Software package (GraphPad Software, Inc., San Diego, Calif.). IC50 values were generated from concentration response curves using the Sigmoidal Dose Response (variable slope) algorithm in Prism GraphPad. Kd and Bmax values for the radioligand were generated from saturation isotherms using the Saturation Binding Global Fit algorithm in Prism GraphPad. pKi (negative decadic logarithm of Ki) values for test compounds were calculated from the best-fit IC50 values, and the Kd value of the radioligand, using the Cheng-Prusoff equation (Cheng & Prusoff (1973) Biochem. Pharmacol. 22(23):3099-3108): Ki=IC50/(1+[L]/Kd), where [L]=concentration radioligand.
# hNET [2] = target: T2, hNET (Homo sapiens, UniProt P23975); assay: hNET membrane radioligand binding assay (3H-nisoxetine); settings: hNET membranes, 1.0 nM 3H-nisoxetine; for Ki: read-out: NET pKi (converted)
# T2 construct: expressed in transfected cells; host or cells: HEK-293
# T2 sequence (P23975 whole entry): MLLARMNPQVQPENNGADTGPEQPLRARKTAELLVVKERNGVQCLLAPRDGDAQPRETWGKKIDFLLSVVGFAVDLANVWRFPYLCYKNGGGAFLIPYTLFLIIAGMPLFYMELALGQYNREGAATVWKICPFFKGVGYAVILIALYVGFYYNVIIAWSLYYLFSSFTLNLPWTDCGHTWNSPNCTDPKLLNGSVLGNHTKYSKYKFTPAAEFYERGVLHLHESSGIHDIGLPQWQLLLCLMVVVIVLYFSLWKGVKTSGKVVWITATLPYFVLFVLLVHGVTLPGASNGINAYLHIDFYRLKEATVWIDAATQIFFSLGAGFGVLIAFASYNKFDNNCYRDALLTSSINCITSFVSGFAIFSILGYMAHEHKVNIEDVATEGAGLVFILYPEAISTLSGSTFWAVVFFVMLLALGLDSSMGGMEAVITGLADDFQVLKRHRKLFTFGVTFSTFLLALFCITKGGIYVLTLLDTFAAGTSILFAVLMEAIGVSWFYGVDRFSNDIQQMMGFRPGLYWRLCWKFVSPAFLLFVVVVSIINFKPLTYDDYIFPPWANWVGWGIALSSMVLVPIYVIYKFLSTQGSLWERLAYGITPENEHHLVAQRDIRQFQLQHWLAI
# Procedure: as §1, §2, §3, §4, §5
# hNET [3] = target: T2, hNET; assay: hNET neurotransmitter uptake assay (3H-NE); format: cell-based; settings: norepinephrine reuptake inhibition, 3H-NE uptake, HEK-293 hNET cells (no asterisk); for IC50: read-out: NET pIC50 (converted)
# Procedure: (§6) Neurotransmitter uptake assays were used to measure inhibition of ^3H-serotonin (^3H-5-HT), ^3H-norepinephrine (^3H-NE), and ^3H-dopamine (^3H-DA) uptake into cells expressing the respective transporter (hSERT, hNET or hDAT) in order to determine the pIC50 values of test compounds at the transporters.
# (§7) HEK-293 derived cell lines stably-transfected with hSERT, hNET, or hDAT, respectively, were grown in DMEM medium supplemented with 10% dialyzed FBS (for hSERT) or FBS (for hNET and hDAT), 100 μg/ml penicillin, 100 μg/ml streptomycin, 2 mM L-glutamine and 250 μg/ml of the aminoglycoside antibiotic G418 (for hSERT and hNET) or 800 ug/ml (for hDAT), in a 5% CO2 humidified incubator at 37° C. When cultures reached 80% confluence, the cells were washed thoroughly in PBS (without Ca^2+ and Mg^2+) and lifted with 5 mM EDTA in PBS. Cells were harvested by centrifugation at 1100 rpm for 5 minutes, washed once by resuspension in PBS, then centrifuged. The supernatant was discarded and the cell pellet resuspended, by gentle trituration, in room temperature Krebs-Ringer bicarbonate buffer containing HEPES (10 mM), CaCl2 (2.2 mM), ascorbic acid (200 μM) and pargyline (200 μM), pH 7.4. The final concentration of cells in the cell suspension was 7.5×10^4 cells/ml, 1.25×10^5 cells/ml, and 5.0×10^4 cells/ml for SERT, NET, and DAT cell lines, respectively.
# (§8) Stock solutions (10 mM in DMSO) of test compound were prepared and serial dilutions prepared using 50 mM Tris-HCl, 120 mM NaCl, 5 mM KCl, pH 7.4, 0.1% BSA, 400 μM ascorbic acid. Test compounds were incubated for 30 minutes at 37° C. with the respective cells, prior to addition of radiolabeled neurotransmitter, ^3H-5-HT (20 nM final concentration), ^3H-NE (50 nM final concentration), or ^3H-DA (100 nM final concentration).
# (§9) Following a 10 minute incubation, at 37° C., with radioligand, the cells were harvested by rapid filtration over a 96-well UniFilter GF/B plate, pretreated with 1% BSA, and washed 6 times with 650 μl wash buffer (ice cold PBS). Plates were dried overnight at 37° C., ˜45 μl of MicroScint™-20 (Perkin Elmer) added and incorporated radioactivity quantitated via liquid scintillation spectroscopy. Inhibition curves were analyzed using GraphPad Prism Software package (GraphPad Software, Inc., San Diego, Calif.). IC50 values were generated from concentration response curves using the Sigmoidal Dose Response (variable slope) algorithm in Prism GraphPad.
# hSERT [4] = target: T1, hSERT; assay: hSERT neurotransmitter uptake assay (3H-5-HT); format: cell-based; settings: serotonin reuptake inhibition, 3H-5-HT uptake, HEK-293 hSERT cells (no asterisk); for IC50: read-out: SERT pIC50 (converted)
# Procedure: as §6, §7, §8, §9
# hSERT [5] = target: T1, hSERT; assay: fluorescence-based serotonin reuptake assay (Tsuruda et al. 2010; data with asterisk); format: cell-based; settings: serotonin reuptake inhibition, fluorescence-based assay (data indicated by an asterisk)
# hNET [6] = target: T2, hNET; assay: fluorescence-based norepinephrine reuptake assay (Tsuruda et al. 2010; data with asterisk); format: cell-based; settings: norepinephrine reuptake inhibition, fluorescence-based assay (data indicated by an asterisk)
Ki (hSERT [1]),Ki (hNET [2]),IC50 (hNET [3]),IC50 (hSERT [4]),SERT pKi (hSERT [1]),NET pKi (hNET [2]),SMILES,other results
–,–,–,–,≧7.0,≧7.0,Fc1cccc(Cl)c1OCc1ccncc1C1CCNCC1 [Example 10-4],NET pIC50 (hNET [3]): ≧7.0; SERT pIC50 (hSERT [4]): ≧7.0
–,–,–,–,≧7.0,≧7.0,Fc1cc(F)c(OCc2cscc2C2CCNCC2)c(F)c1 [Example 28-3],NET pIC50 (hNET [3]): ≧7.0; SERT pIC50 (hSERT [4]): ≧7.0
–,–,–,–,≧7.0,≧7.0,Clc1cccc(OCc2ccsc2C2CCNCC2)c1 [Example 31-2],SERT pIC50 (hSERT [5]): ≧7.0*; NET pIC50 (hNET [6]): ≧7.0*
–,–,–,–,≧7.0,≧7.0,Fc1cc(F)c(OCc2ccsc2C2CCNCC2)c(F)c1 [Example 31-3],SERT pIC50 (hSERT [5]): ≧7.0*; NET pIC50 (hNET [6]): ≧7.0*

# The remaining lines, values behind:
SMILES,Ki (hSERT [1]),Ki (hNET [2]),IC50 (hNET [3]),IC50 (hSERT [4]),SERT pKi (hSERT [1]),NET pKi (hNET [2]),other results
"Fc1cc(F)c(OCc2ccncc2C2CCNCC2)c(F)c1 [Example 9, 4-(2,4,6-Trifluorophenoxymethyl)-1′,2′,3′,4′,5′,6′-hexahydro[3,4]bipyridinyl]",≤ 0.1 µM,≤ 0.1 µM,≤ 0.1 µM,≤ 0.1 µM,–,–,–
"Fc1cc(F)c(OCc2cccnc2C2CCNCC2)c(F)c1 [Example 13, 3-(2,4,6-Trifluorophenoxymethyl)-1′,2′,3′,4′,5′,6′-hexahydro[2,4]bipyridinyl]",≤ 0.1 µM,≤ 0.1 µM,≤ 0.1 µM,≤ 0.1 µM,–,–,–
"Clc1cccc(OCc2sccc2C2CCNCC2)c1 [Example 24, 4-[2-(3-Chlorophenoxymethyl)thiophen-3-yl]piperidine]",≤ 0.1 µM,≤ 0.1 µM,–,–,–,–,IC50 (hSERT [5]; read-out: SERT pIC50 (converted)): ≤ 0.1 µM; IC50 (hNET [6]; read-out: NET pIC50 (converted)): ≤ 0.1 µM
"Fc1cccc(F)c1OCc1cscc1C1CCNCC1 [Example 27, 4-[4-(2,6-Difluorophenoxymethyl)thiophen-3-yl]piperidine]",≤ 0.1 µM,≤ 0.1 µM,≤ 0.1 µM,≤ 0.1 µM,–,–,–
